From US6114175A, “Compound for the antemortem diagnosis of Alzheimer's Disease and in vivo imaging and prevention of amyloid deposition” (priority 1998, dated 2000)
“Also recorded” adds a separate entry of the source. Read-outs that look alike come from different tables or passages of the source.

What was measured:
Aβ(10-43) [1] = target: T1, Aβ(10-43) (Homo sapiens, UniProt P05067); experiment: Inhibition of [^14 C]Chrysamine G binding to Aβ(10-43); conditions: for potency/affinity relative to another compound: Congo red or the series
T1 sequence (P05067 681-714): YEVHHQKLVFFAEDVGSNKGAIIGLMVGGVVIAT

[2] = Octanol/water partitioning; conditions: phosphate buffered saline, pH 7.4
AD brain [3] = experiment: Histologic staining of human AD brain sections; conditions: fluorescence microscopy
Experimental: 26: 241-242 (1973) with 1 mM 1,4-bis(3-carboxy-4-hydroxyphenylethenyl)-benzene substituted for Congo red, but the procedure was otherwise identical. Stained slides were examined using fluorescence microscopy.
(§1) The staining method was that of Stokes and Trickey, J. Clin. Pathol. 26: 241-242 (1973) with 1,4-bis(3-carboxy-4-hydroxyphenylethenyl)-benzene substituted for Congo red.

[4] = system: transgenic mouse brain [Tg(HuAPP695.SWE)2576]; experiment: Histologic staining of transgenic mouse brain sections; conditions: fluorescence microscopy
Description: as §1

[5] = cited from earlier work
Aβ [6] = conditions: cited from earlier work
[7] = mouse; Tubis et al.; cited from earlier work
Aβ [8] = conditions: Lorenzo and Yankner; cited from earlier work
pancreatic islet cells = conditions: cited from earlier work
AD brain [9] = experiment: Scatchard analysis of [^14 C]CG binding to AD brain; set-up: species or system human
Aβ(10-43) [10] = target: T1, Aβ(10-43)
control brain [11] = experiment: Scatchard analysis of [^14 C]CG binding to control brain; set-up: species or system human
control brain [12] = experiment: Total [^14 C]Chrysamine G binding in control brain homogenates
PC-12 cells = experiment: Protection from Aβ(25-35)-induced toxicity in PC-12 cells (MTT reduction); conditions: for protection against Aβ(25-35)-induced toxicity: 1 μM Aβ(25-35) (FIG. 14)
AD brain [13] = experiment: Total [^14 C]Chrysamine G binding in AD brain homogenates
[14] = Tissue levels and metabolism of [^14 C]Chrysamine G in mice
Aβ(10-43) [15] = target: T1, Aβ(10-43); experiment: Scatchard analysis of Chrysamine G binding to synthetic Aβ(10-43)

## O=C(O)c1cc(N=Nc2ccc(-c3ccc(N=Nc4ccc(O)c(C(=O)O)c4)c(I)c3)cc2I)ccc1O [3,3'-I2 CG]
Aβ(10-43) [1]; relative to Chrysamine G
  potency/affinity relative to another compound: about half that of Chrysamine G
[2]
  logD: 2.05

## O=C(O)c1ccccc1O [salicylic acid]
Aβ(10-43) [1]
  binding activity: total lack of binding activity; also recorded: inactivity

## O=C(O)c1cc(C=Cc2ccc(C=Cc3ccc(O)c(C(=O)O)c3)cc2)ccc1O [1,4-bis(3-carboxy-4-hydroxyphenylethenyl)-benzene]
AD brain [3]
  staining of human AD brain: much more intense than that observed with Chrysamine G, Congo red, or Thioflavin S; also recorded: Visible are a large number of neuritic plaques, a neurofibrillary tangle and frequent neuropil threads
[4]
  staining of transgenic mouse brain: intensely stained plaque

## O=C(O)c1cc(N=Nc2ccc(-c3ccc(N=Nc4ccc(O)c(C(=O)O)c4)c(Br)c3)cc2Br)ccc1O [3,3'-Br2 CG]
Aβ(10-43) [1]; relative to Chrysamine G
  potency/affinity relative to another compound: about half that of Chrysamine G

## O=C(O)c1cc(N=Nc2ccc(-c3ccc(N=Nc4ccc(O)c(C(=O)O)c4)c(C(=O)O)c3)cc2C(=O)O)ccc1O [3,3'-(COOH)2 CG]
Aβ(10-43) [1]; relative to Chrysamine G
  loss of activity from Chrysamine G: 7 fold

## O=C(O)c1cc(N=Nc2ccccc2)ccc1O [aniline derivative]
Aβ(10-43) [1]
  Ki: 73000 nM
  binding activity: decrease in affinity
Aβ(10-43) [1]; Ki of 73 μM
  energy of binding (from Ki): 5.5 kcal/mol
Aβ(10-43) [1]; predicted value
  expected energy of binding (one-half of Chrysamine G): about 19 KJ/mole

## Nc1c(/N=N/c2ccc(-c3ccc(/N=N/c4cc(S(=O)(=O)O)c5ccccc5c4N)cc3)cc2)cc(S(=O)(=O)O)c2ccccc12 [Congo red]
Aβ(10-43) [1]; read-out: Ki for inhibition of [^14 C]Chrysamine G binding to Aβ(10-43), [^14 C]Chrysamine G 0.100-0.125 μM
  Ki: 2800 nM
[5]; guinea pig, in vivo
  blood-brain barrier crossing: does not cross the blood-brain barrier well
[5]; guinea pigs
  brain/kidney ratio: approximately 0.07
Aβ [6]
  concentration for complete protection against Aβ-induced toxicity: ≤ 20 µM
  concentration for protection against Aβ-induced toxicity: over 2 μM
Aβ [6]; in vitro
  effect on Aβ-induced neurotoxicity: inhibits fibrillar Aβ neurotoxicity; also recorded: inhibits Aβ-induced neurotoxicity and cell degeneration in vitro
[2]
  logD: -0.177
[7]
  LD50: 190 mg/kg
Aβ [8]
  effect on aggregation of Aβ: does inhibit aggregation of Aβ
Pancreatic islet cells
  effect on amylin toxicity to pancreatic islet cells: inhibit pancreatic islet cell toxicity; also recorded: protect pancreatic islet cells from the toxicity caused by amylin

## O=C(O)c1cc(N=Nc2ccc(-c3ccc(N=Nc4ccc(O)c(C(=O)O)c4)c(I)c3)cc2)ccc1O [3-ICG]
Aβ(10-43) [1]; relative to Chrysamine G
  potency/affinity relative to another compound: slightly more potent than Chrysamine G

## O=C(O)c1cc(F)cc(N=Nc2ccc(-c3ccc(N=Nc4cc(F)cc(C(=O)O)c4O)cc3)cc2)c1O [(5-FSA)CG]
Aβ(10-43) [1]; relative to Chrysamine G
  potency/affinity relative to another compound: one-third as potent as Chrysamine G itself

## O=C(O)c1cc(N=Nc2ccc(-c3ccc(N=Nc4ccc(O)c(C(=O)O)c4)c(Cl)c3)cc2Cl)ccc1O [3,3'-Cl2 CG]
Aβ(10-43) [1]; relative to Chrysamine G
  potency/affinity relative to another compound: about half that of Chrysamine G

## O=C(O)c1cc(N=Nc2ccc(-c3ccc(N=Nc4ccc(O)c(C(=O)O)c4)cc3)cc2)ccc1O [Chrysamine G, 4,4'-bis(3-carboxy-4-hydroxyphenylazo)-biphenyl]
AD brain [9]; n = 5
  Bmax, AD brain (Table 1): 0.784 ± .061 pmol/μg prot
AD brain [9]; n = 5, read-out: KD, AD brain (Table 1)
  Kd: 390 ± 48 nM
AD brain [9]; p=0.09, not significant
  Bmax in AD brain higher than control: 36%
AD brain [9]; p=0.29, not significant
  KD in AD brain lower than control: 16%
AD brain [9]; sample with 48 NP/×200 magnification
  Bmax (typical AD brain sample): 790 fmol/μg protein
AD brain [9]; sample with 48 NP/×200 magnification, read-out: KD (typical AD brain sample)
  Kd: 350 nM
Aβ(10-43) [10]
  dissociation t1/2: 55 ± 9.4 s
Control brain [11]; n = 6
  Bmax, control brain (Table 1): 0.576 ± .092 pmol/μg prot
Control brain [11]; n = 6, read-out: KD, control brain (Table 1)
  Kd: 470 ± 49 nM
Control brain [11]; single typical control
  Bmax (typical control sample): 614 fmol/μg protein
Control brain [11]; single typical control, read-out: KD (typical control sample)
  Kd: 480 nM
Control brain [12]; n = 4
  total binding, Head of Caudate: 73 ± 11 fmol/μg protein
Control brain [12]; n = 6
  total binding, Frontal Pole: 58 ± 8 fmol/μg protein
Control brain [12]; n = 8
  total binding, Cerebellum: 75 ± 13 fmol/μg protein
  total binding, Inferior Parietal: 76 ± 13 fmol/μg protein
  total binding, Superior Temporal: 66 ± 17 fmol/μg protein
  total binding, Superior/Middle Frontal: 54 ± 10 fmol/μg protein
[2]
  logD: 1.78
PC-12 cells
  protection against Aβ(25-35)-induced toxicity: protective effects at 0.1 and 1 μM
PC-12 cells; 0.01 to 10 μM Aβ(25-35) and 0.03 to 20 μM CG
  protective effect dependence: protective effect which is dependent on both the concentration of Aβ(25-35) (FIG. 12) as well as the concentration of Chrysamine G
PC-12 cells; Rattus norvegicus, PC-12, 24 h, read-out: concentration at which protective effect is evident
  minimal effective concentration: 0.2 µM
PC-12 cells; any of the Chrysamine G concentrations
  MTT reduction in the absence of Aβ(25-35) vs control: no significant difference
AD brain [13]; 20 μM unlabelled CG defines non-saturable
  saturable (specific) binding as share of total binding in AD brain: 60-80%
AD brain [13]; AD brains alone, p=0.007
  correlation (r) of [^14 C]CG binding with NPs: 0.59
AD brain [13]; AD brains alone, p=0.026
  correlation (r) of [^14 C]CG binding with NFTs: 0.50
AD brain [13]; AD, n = 7, p = 0.14
  total binding, Head of Caudate: 123 ± 22 fmol/μg protein
AD brain [13]; AD, n = 10, p < 0.006
  total binding, Frontal Pole: 124 ± 16 fmol/μg protein
AD brain [13]; AD, n = 11, p < 0.005
  total binding, Superior/Middle Frontal: 130 ± 21 fmol/μg protein
AD brain [13]; AD, n = 11, p < 0.02
  total binding, Superior Temporal: 121 ± 14 fmol/μg protein
AD brain [13]; AD, n = 11, p < 0.03
  total binding, Inferior Parietal: 137 fmol/μg protein
AD brain [13]; AD, n = 11, p = 0.91
  total binding, Cerebellum: 73 ± 9 fmol/μg protein
AD brain [13]; brains with cerebrovascular amyloid, p=0.15
  correlation (r) of CG binding with NP counts: 0.49
AD brain [13]; brains without amyloid angiopathy, p=0.01
  correlation (r) of CG binding with NP counts: 0.79
AD brain [13]; controls included, p=0.001
  correlation (r) of [^14 C]CG binding with NFTs: 0.60
  correlation (r) of [^14 C]CG binding with NPs: 0.69
AD brain [13]; superior/middle frontal cortex
  overlap of binding between control and AD samples: no overlap between control and any of the AD samples
[14]; 60 min after i.v. injection, brain and liver
  metabolism: no significant metabolism; also recorded: essentially all of the radioactivity found in the brain and liver proved to be unchanged Chrysamine G
[14]; normal mouse brain
  entry into brain: does get into normal mouse brain, and the brain/blood ratio is high
Aβ(10-43) [15]; KD 0.26 μM
  energy of binding (from KD): roughly 38 KJ/mole
Aβ(10-43) [15]; less well defined
  Bmax, lower affinity component: 18.7 nmoles Chrysamine G/mg Aβ(10-43)
Aβ(10-43) [15]; read-out: KD, higher affinity component (Scatchard), Aβ(10-43), two-site model
  Kd: 260 nM
Aβ(10-43) [15]; read-out: KD, lower affinity component (Scatchard), less well defined
  Kd: 4010 nM
Aβ(10-43) [15]; two-site model
  Bmax, higher affinity component: 3.18 nmoles Chrysamine G/mg Aβ(10-43)

## Oc1ccc(N=Nc2ccc(-c3ccc(N=Nc4ccc(O)cc4)cc3)cc2)cc1 [phenol derivative]
Aβ(10-43) [1]
  binding activity: completely destroyed binding affinity; also recorded: does not bind to synthetic Aβ
PC-12 cells
  protection against Aβ(25-35)-induced toxicity: no protective effects, and perhaps enhanced the toxicity of Aβ

## O=C(O)c1cc(N=Nc2ccc(-c3ccc(N=Nc4ccc(O)c(C(=O)O)c4)cc3S(=O)(=O)O)c(S(=O)(=O)O)c2)ccc1O [2,2'-(SO3)2 CG]
Aβ(10-43) [1]
  binding activity: inactivity

## O=C(O)c1c(O)ccc(N=Nc2ccc(-c3ccc(N=Nc4ccc(O)c(C(=O)O)c4O)cc3)cc2)c1O [(6-OHSA)CG]
Aβ(10-43) [1]
  Ki: 94 ± 20 nM
Aβ(10-43) [1]; relative to Chrysamine G
  potency/affinity relative to another compound: highest affinity compound in this series
